# Data: patent publication US11672834B2, “Probiotic and prebiotic compositions, and methods of use thereof for modulation of the microbiome” (Evelo Biosciences, Inc., priority 2014, dated 2023)
# Columns and labels:
# [1] = tested on: Tregs in the large intestine; settings: mouse, in vivo; cited from earlier work
# [2] = tested on: tumors; settings: oral administration; cited from earlier work
# [3] = tested on: anaerobic commensal bacteria; assay: Carbon source utilization by commensal bacteria (Biolog PM01/PM02A plates, OD 750 nm); format: cell-based
# [4] = tested on: healthy, adult volunteers; settings: human, in vivo, 28 days
# Protocol: D-xylose is a carbon source generally preferred by anaerobic bacteria. […] A parallel, double-blind, 5 cohort escalation food safety study was conducted to examine D-xylose in normal human volunteers. The study was a double-blind, single-center, parallel group study designed to evaluate the tolerability and potential microbiome changes induced by ingestion of D-xylose at 5 different amounts in healthy, adult volunteers enrolled at 1 study center in the United States (US).
# Subjects were screened for eligibility within 21 days prior to the first planned ingestion of study sweetener on Day 1 (Baseline). […]
# Subjects returned to the study center weekly on Days 8, 15, 22, and 28 for ingestion, tolerability, and compliance evaluations. Safety was evaluated on a continual basis through adverse events (AE) monitoring, clinical laboratory measurements, vital sign monitoring, physical examinations, electrocardiograms (ECGs), telephone follow-up, and electronic subject ingestion diaries. Stool was collected pre-ingestion and at pre-specified time points, and post-ingestion samples were evaluated for changes in the gut microbiome compared with Baseline for all subjects. […]
# Safety was evaluated on a continual basis through AE monitoring, clinical laboratory measurements, vital sign monitoring, physical examinations, ECGs, telephone follow-up, and electronic subject ingestion diaries. […]
# [5] = Normal human volunteer study of D-xylose: pharmacokinetics (serum and urine D-xylose); format: in vivo; settings: Day 15; 15 mg TID cohort; variability high
# Protocol: Blood and urine were collected at pre-specified pre- and post-ingestion time points to measure D-xylose levels and to characterize the systemic absorption profiles of D-xylose. Serum D-xylose concentrations were summarized by cohort using nominal sample times according to actual amount received using summary statistics (n, coefficient of variation [CV], mean, standard deviation [SD], median, minimum, and maximum). Evidence for the occurrence of steady-state was assessed graphically by comparing the time course of either trough or 2-hour post-ingestion serum concentrations of D-xylose as different levels of D-xylose. Accumulation was assessed by comparing the 2-hour post-first-ingestion serum levels with those observed at Week 2 (Day 15) and Week 4 (Day 28). […] Urine PK parameters for D-xylose levels included Ae(0-t) (cumulative amount of sweetener recovered in urine) and percent sweetener amount excreted over a 5-hour period.
# [6] = tested on: healthy, adult volunteers; assay: Normal human volunteer study of D-xylose: immunology (CRP, cytokines, T-cell markers) and gut microbiome; format: in vivo; settings: for effect on gut microbiome (alpha diversity, community composition): stool 16S, normal individuals
# Description: Blood was collected at pre-specified pre- and post-ingestion time points to evaluate C-reactive protein (CRP), serum cytokines (tumor necrosis factor alpha [TNF-α], interleukin [IL]-2, IL-6, interferon gamma [IFN-γ], and IL-10), and T-cell markers CD3, CD4, CD8, CD25, and FOXP3. Plasma was also stored and may be tested for biomarkers and/or metabolic markers for up to 7 years.
# A total of 7 stool samples were expected to be collected for each subject. Evaluation of changes in the gut microbiome were evaluated in stool samples through taxonomic classification, relative and statistical differential abundance analyses by cohort and time point, an alpha diversity analysis calculated using the Shannon diversity index by cohort and time point, a beta diversity analysis using Bray-Curtis dissimilarity and Unifrac distance by subject and time point, and a principal coordinates analysis using the beta diversity data.
# Summary statistics (n, mean, standard deviation, median, minimum, and maximum) were presented for serum concentrations of CRP, flow cytometry T-cell markers (CD3, CD4, CD8, CD25, and FOXP3), and cytokines (TNF-α, IL-2, IL-6, IFN-γ, and IL-10) as per their nominal time points.
# A total of 344 stool samples were collected in OMNIgene•GUT collection kits and shipped to the GenoFIND laboratory for DNA extraction and V3-V4 16S amplicon sequencing. […] Numerous taxa were identified as differentially abundant, but this finding may be attributable to the relatively small sample sizes of each cohort. […] The impact of xylose on the microbiome under disease conditions remains to be determined.
# [7] = tested on: serum endotoxin
# Description: FIG. 1 is a graph depicting serum endotoxin levels (EU/ml) over time following treatment with xylose.
# [8] = tested on: Blautia; Lactobacillus johnsonii; assay: Sugar fermentation by Blautia versus Lactobacillus johnsonii (pH and optical density, media lacking glucose); format: cell-based
# [9] = tested on: mice with GVHD; settings: mouse, in vivo
# [10] = tested on: C57Bl/6 female mice; settings: mouse, in vivo
# Description: The trillions of organisms forming the microbiome function as an organ system interconnected throughout the body. The possibility that modification of the microbiome in a given physical location may influence the microbiome at other sites in the body (distal augmentation) was investigated. Seven week old C57Bl/6 female mice were acclimatized for 7 days prior to the start of the study by daily handling and shuffling between cages. All mice were housed at three mice per cage in individually vented cages (Thoren, Hazleton, Pa.). At day 0, baseline fresh fecal pellets, and vaginal lavages with 100 μL of sterile double-distilled water were collected and immediately frozen at −80° C. for microbiome analysis. […] Water alone is not expected to influence the microbiome and acted as a negative control. […] The impact of oral vancomycin is therefore expected to be limited to the gastrointestinal tract such that microbiome changes elsewhere in the body (e.g. vagina) would be attributable to distal augmentation. At day 6, fresh fecal pellets and vaginal lavages with 100 μL of sterile double-distilled water were collected and immediately stored at −80° C. for microbiome analysis.
# Isolation and sequencing of microbial DNA from the stool and vaginal samples was performed by DNA Genotek (Ottawa, ON, Canada). The V3-V4 region of the 16S ribosomal subunit was amplified with custom PCR primers and sequenced on an Illumina MiSeq to a minimum acceptable read depth of 25,000 sequences per sample. […] These OTU's were then assigned a curated taxonomic label based on the seven level SILVA taxonomy.
molecule,measurement,setting,value
CCC(=O)O [propionate],numbers of Tregs in the large intestine,[1],restored normal numbers of Tregs in the large intestine
Bifidobacterium,responsiveness to checkpoint inhibitor therapy in cancer,[2],increases the responsiveness to checkpoint inhibitor therapy in cancer
Bacteroides,responsiveness to checkpoint inhibitor therapy in cancer,[2],increases the responsiveness to checkpoint inhibitor therapy in cancer
O=C[C@H](O)[C@@H](O)[C@H](O)CO [D-xylose],use as carbon source by bacterial strains,[3],used as a carbon source by several bacterial strains
same,subjects with at least 1 AE considered related to study sweetener,[4],25.0%
same,accumulation ratio,[5],approximately 1.9 fold
same,serum interferon gamma over time,[6]; 2 g and 15 g D-xylose cohorts,trend for reduced levels of serum interferon gamma over time
same,total T-cells or T-cell subsets over time,[6]; any D-xylose ingestion amount,No consistent or clinically meaningful changes over time
same,"effect on gut microbiome (alpha diversity, community composition)",[6],no apparent significant impact on the intra-sample alpha diversity
CC(=O)O [acetate],numbers of Tregs in the large intestine,[1],restored normal numbers of Tregs in the large intestine
"CCN1CCN(c2cc3c(cc2F)c(=O)c(C(=O)O)cn3C2CC2)CC1 [enrofloxacin, reference compound]","serum endotoxin levels after antibiotic treatment, recovery","[7]; mice, by day 14",return to baseline
same,serum endotoxin levels after antibiotic treatment,"[7]; mice, measured 2 days after a 5 day course, at day 0",leads to an increase in serum endotoxin levels
C[C@H](O)[C@H](O)[C@@H](O)[C@@H](O)C=O [rhamnose],substrate fermentable by Blautia but not lactobacillus,[8],specifically augments Blautia but not lactobacillus
O=C[C@H](O)[C@@H](O)[C@H](O)CO [xylose],basal levels of serum endotoxin,"[7]; mouse, in vivo",reduces basal levels of serum endotoxin
same,effect on the endotoxin increase caused by cipro,"[7]; mouse, in vivo",counteracts the endotoxin increase
same,effect on the endotoxin increase caused by enro,"[7]; mouse, in vivo",not
same,"effect on gut microbiome (alpha diversity, community composition)",[6],exerts subtle changes in the gut microbiome
same,substrate fermentable by Blautia but not lactobacillus,[8],specifically augments Blautia but not lactobacillus
same,Blautia in the intestinal flora,[9],expansion of Blautia in the intestinal flora
same,survival of mice with GVHD,[9],improved survival of mice with GVHD
"CN[C@H](CC(C)C)C(=O)N[C@H]1C(=O)N[C@@H](CC(N)=O)C(=O)N[C@H]2C(=O)N[C@H]3C(=O)N[C@H](C(=O)N[C@H](C(=O)O)c4cc(O)cc(O)c4-c4cc3ccc4O)[C@H](O)c3ccc(c(Cl)c3)Oc3cc2cc(c3O[C@@H]2O[C@H](CO)[C@@H](O)[C@H](O)[C@H]2O[C@H]2C[C@](C)(N)[C@H](O)[C@H](C)O2)Oc2ccc(cc2Cl)[C@H]1O [Vancomycin, vancomycin]","impact on the microbiome of the gut (fecal samples, PCA at family level)",[10],strong impact on the microbiome of the gut
same,median abundance of bacterial species detected in vaginal samples at day 6 that were not present at day 0,[10],approximately 0.00002%
same,day 0 to day 6 pattern in vaginal samples (PCA),[10]; po,overall difference between the PBS and oral vancomycin groups
